Measurements as given in patent US4255183A, “Substituted phenyl urea and herbicides for use in paddy field” (Hokko Chemical Industry Co., Ltd., priority 1977, dated 1981).
Like-named read-outs stand apart in the source and are kept apart here.

How the values were obtained:
paddy rice [1] = assay: Test Example 5: Wagner pot test, chemical injury on paddy rice; type: in vivo, paddy rice (Asahi species); also: key: 5: Completely killed; 4: Considerably injured; 3: Moderately injured; 2: A little injured; 1: Slightly injured; 0: Not injured
Method: (§1) In a 1/7500 are Wagner pot, sieved paddy field soil (alluvial soil) was charged. Thereafter, in the center portion of the pot, 2 roots of paddy rice (Asahi species) at the 2- to 3-leaf stage were transplanted and 20 seeds of Bulrush per pot were seeded in the surface of the above soil. The pot was submerged at the depth of about 2 cm. The other Dopatrium junceum and umbrella plant were generated naturally. After seeding, when each of the weeds reached the same leaf age as defined in Table 5 given herein, a predetermined concentration of the emulsion prepared according to Example 4 was applied dropwise on the surface of the pot. The test was carried out by repeating the same test three times per area and the results were determined 20 days after the application of the chemicals with regard to the herbicidal effect and chemical injury on paddy rice on the basis of the evaluation index as shown below.
(§2) As the comparative chemicals Molinate, Benthiocarb and DCMU, those commercially available were used.

Umbrella plant = assay: Test Example 5: Wagner pot test, herbicidal effect on umbrella plant; type: in vivo; conditions: 20 days after application
Method: as §1, §2
(§3) In the above table, the inhibition rate was calculated according to the method as described in Test Example 1.

Dopatrium junceum = assay: Test Example 5: Wagner pot test, herbicidal effect on Dopatrium junceum; type: in vivo
Method: as §1, §2, §3

[2] = system: Echinochloa crus-galli var. oryzicola; assay: Test Example 1: pot test on selectivity, inhibition of Echinochloa crus-galli var. oryzicola; type: in vivo; conditions: Echinochloa crus-galli, 720 h
How it was run: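 Inhibition rate was calculated from weed and rice dry weight relative to untreated pots, measured 30 days after treatment. The emulsion, at predetermined concentrations, was applied dropwise to flooded (~1 cm) paddy-soil pots sown with Echinochloa crus-galli var. oryzicola and rice, at the weed's one-leaf and five-leaf stages.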

paddy rice [3] = assay: Test Example 1: pot test on selectivity, inhibition of paddy rice; type: in vivo; conditions: for inhibition at 750 g/ha / inhibition at 1500 g/ha / inhibition at 3000 g/ha / inhibition at 6000 g/ha / inhibition at 9000 g/ha: Oryza sativa, 720 h
How it was run: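 Alluvial paddy soil in pots sown with Echinochloa crus-galli var. oryzicola (50 seeds) and paddy rice (30 seeds), submerged about 1 cm. Dry weights taken 30 days after chemical treatment; inhibition rate calculated relative to untreated area.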

various weeds = conditions: known upland herbicides; cited from earlier work
Bulrush = assay: Test Example 5: Wagner pot test, herbicidal effect on Bulrush; type: in vivo
Method: as §1, §2, §3

paddy rice [4] = conditions: known upland herbicides; cited from earlier work
[5] = 300 g/10a, leaf age 3, 20 days after application
[6] = 600 g/10a, leaf age 3, 20 days after application
[7] = read-out: Inhibition (%) by treatment at 1-leaf stage, E. crus-galli var. oryzicola
[8] = read-out: Inhibition (%) by treatment at 5-leaf stage, E. crus-galli var. oryzicola
[9] = read-out: Inhibition (%) by treatment at 1-leaf stage, paddy rice
[10] = read-out: Inhibition (%) by treatment at 5-leaf stage, paddy rice

For `CN(C)C(=O)Nc1ccc(Cl)c(Cl)c1` [DCMU, 3-(3,4-dichlorophenyl)-1,1-dimethyl urea], the “Chemical injury on paddy rice” value (paddy rice [1]; 300 g/10a, 3 tillers, 20 days after application) was 4, the “Chemical injury on paddy rice” value (paddy rice [1]; [5]) was 5 and the “Chemical injury on paddy rice” value (paddy rice [1]; 600 g/10a, 3 tillers, 20 days after application) was 5. For the same compound, the “Chemical injury on paddy rice” value (paddy rice [1]; [6]) was 5, the “Weed kill degree, Umbrella plant” value (Umbrella plant; 300 g/10a, leaf age 2 (first group of columns)) was 5 (100) and the “Weed kill degree, Umbrella plant” value (Umbrella plant; 300 g/10a, leaf age 2 (second group of columns)) was 4-5. The “Weed kill degree, Umbrella plant” value (Umbrella plant; 600 g/10a, leaf age 2 (first group of columns)) was 5 (100), the “Weed kill degree, Umbrella plant” value (Umbrella plant; 600 g/10a, leaf age 2 (second group of columns)) was 5 (100) and the “Weed kill degree, Dopatrium junceum” value (Dopatrium junceum; 300 g/10a, leaf age 2, 20 days after application) was 5 (100). For the same compound, the “Weed kill degree, Dopatrium junceum” value (Dopatrium junceum; [5]) was 5 (100), the “Weed kill degree, Dopatrium junceum” value (Dopatrium junceum; 600 g/10a, leaf age 2, 20 days after application) was 5 (100) and the “Weed kill degree, Dopatrium junceum” value (Dopatrium junceum; [6]) was 5 (100). For the same compound, the inhibition at 750 g/ha [2, 7] was 91%, the inhibition at 1500 g/ha [2, 7] was 100% and the inhibition at 3000 g/ha [2, 7] was 100%. For the same compound, the inhibition at 6000 g/ha [2, 7] was 100%, the inhibition at 9000 g/ha [2, 7] was 100% and the inhibition at 750 g/ha [2, 8] was 76%. The inhibition at 1500 g/ha [2, 8] was 100%, the inhibition at 3000 g/ha [2, 8] was 100% and the inhibition at 6000 g/ha [2, 8] was 100%. It also gave an inhibition at 9000 g/ha [2, 8] of 100%, an inhibition at 750 g/ha (paddy rice [3]; [9]) of 92% and an inhibition at 1500 g/ha (paddy rice [3]; [9]) of 100%. It also gave an inhibition at 3000 g/ha (paddy rice [3]; [9]) of 100%, an inhibition at 6000 g/ha (paddy rice [3]; [9]) of 100% and an inhibition at 9000 g/ha (paddy rice [3]; [9]) of 100%. The inhibition at 750 g/ha (paddy rice [3]; [10]) was 61%, the inhibition at 1500 g/ha (paddy rice [3]; [10]) was 100% and the inhibition at 3000 g/ha (paddy rice [3]; [10]) was 100%. The inhibition at 6000 g/ha (paddy rice [3]; [10]) was 100%, the inhibition at 9000 g/ha (paddy rice [3]; [10]) was 100% and the “selectivity between Echinochloa crus-galli var. oryzicola and paddy rice” value (paddy rice [3]; in vivo) was “kill not only Echinochloa crus-galli var. oryzicola but also paddy rice”. For the same compound, the “herbicidal activity against various weeds” value (various weeds) was “strong herbicidal activity”, the “Weed kill degree, Bulrush” value (Bulrush; [5]) was 5 (100) and the “Weed kill degree, Bulrush” value (Bulrush; 300 g/10a, leaf age 3-5, 20 days after application) was 5 (100). For the same compound, the “Weed kill degree, Bulrush” value (Bulrush; [6]) was 5 (100), the “Weed kill degree, Bulrush” value (Bulrush; 600 g/10a, leaf age 3-5, 20 days after application) was 5 (100) and the “chemical injury to paddy rice” value (paddy rice [4]) was “strong chemical injury to paddy rice”.
